Results as given in publication PMC9995496, “A screen for MeCP2-TBL1 interaction inhibitors using a luminescence-based assay” (Scientific Reports, 2023).

Target: T1, MeCP2-TBL1 interaction (MeCP2-SmBiT / TBL1-LgBiT) (Mus musculus, UniProt Q9QXE7)
T1 construct: expressed in transfected cells; crude lysate used as a cell-free assay
T1 sequence (Q9QXE7 166-527): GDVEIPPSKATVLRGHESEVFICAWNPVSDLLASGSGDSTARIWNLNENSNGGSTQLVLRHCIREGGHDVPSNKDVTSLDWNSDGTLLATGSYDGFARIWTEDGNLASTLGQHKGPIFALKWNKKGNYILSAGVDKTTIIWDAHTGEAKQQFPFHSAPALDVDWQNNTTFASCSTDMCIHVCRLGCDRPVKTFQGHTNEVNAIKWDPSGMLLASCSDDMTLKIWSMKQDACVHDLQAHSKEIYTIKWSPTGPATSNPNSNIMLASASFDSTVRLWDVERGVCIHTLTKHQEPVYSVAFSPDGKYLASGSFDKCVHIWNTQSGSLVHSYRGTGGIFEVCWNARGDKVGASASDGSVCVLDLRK
Assay: MeCP2-TBL1 NanoLuc luciferase complementation assay (cell-free, extracts of transfected HEK293 cells)
Assay type: binding, human
Source text: To facilitate the discovery of inhibitors of the interaction between MeCP2 and TBL1/TBLR1, we set out to devise a simple and scalable biochemical assay for measuring the interaction between these two proteins. We initially explored the possibility of screening compound libraries using a previously established fluorescence polarization assay that depends on purified recombinant TBL1/TBLR1[26]. […] The resulting luminescence signal depends on the affinity between the two interacting proteins of interest (Fig. 1A). This method was originally developed to allow for the interrogation of protein–protein interactions in vivo. However, in order to facilitate large scale screening of chemical libraries, we adapted the assay for use as a cell-free system.
We fused the large N-terminal fragment of NanoLuc (LgBiT) to the C-terminus of the WD repeat domains of both TBL1 and TBLR1, and the small C-terminal fragment of NanoLuc (SmBiT) to the C-terminus of the C-terminal half of MeCP2 (Fig. 1B and C). This region of MeCP2 contains the NID (NCoR interaction domain)—the motif in MeCP2 that binds to TBL1/TBLR1.
The AgeI-NotI restriction fragment (encoding EGFP) was then replaced with a codon optimized SmBiT sequence to yield the MeCP2-SmBiT expression plasmid. The TBL1-LgBiT expression vector was derived from a TBL1-mCherry plasmid[25] by replacing the AgeI-NotI restriction fragment (encoding mCherry) with a codon optimized LgBiT sequence. SmBiT-PRKACA and LgBiT-PRKAR2A plasmids are commercially available (Promega, N203 and N204).
Cells were harvested after 24 h and cell pellets were stored at − 80 °C.
In the screens described here, the lysate obtained from a single 15 cm plate was used for 2.5 384-well assay plates. NanoLuc substrate (furimazine) (Promega, N1110) was diluted 1000-fold in passive lysis buffer (Promega, E1941) and added 1:1 to the lysate. Screening libraries were purchased from Asinex[40] and ApexBio (FDA-approved Drug Library, L1021). Compounds were dispensed using an Echo acoustic dispenser and tested at a final concentration of 20 µM in a total assay volume of 20 μl in 384-well plate format. DMSO was added to each well at a final concentration of 0.2% (v/v) and wells containing only DMSO were used as negative control. After 30 min incubation at room temperature, luminescence was measured on a Tecan M1000 multi-mode plate reader. Raw luminescence reads from each well on each plate were normalized to the median luminescence signal for that plate. In the ApexBio screen, the scaled and normalized PKA signal for each compound was subtracted from the MeCP2-TBL1 signal for the same compound. After plate normalization the robust SSMD (SSMD*) was calculated as described elsewhere. A threshold of SSMD* ≥ 3 was applied for discerning primary hits.
Assays were performed as described above except instead of a single concentration, a threefold serial dilution ranging from 60 to 0.03 μM was tested in triplicate for each of the compounds. Half-maximal inhibitory concentrations were calculated using global nonlinear regression by fitting the response data sets of all compounds simultaneously with a four-parameter logistic curve of log inhibitor concentration versus normalized luminescence using GraphPad Prism. During fitting, the maximum and minimum curve values were shared between the data sets.

[1] = primary screen of the Asinex library, sheet "Sargen output Asinex library", one well per compound, Batch Ref. 1
[2] = primary screen of the Asinex library, sheet "Sargen output Asinex library", one well per compound
[3] = primary screen of Asinex library, single well per compound

Inhibition percent [1] | Inhibition percent [2] | SMILES | other results
3.33% | – | O=C(Cn1ncc2ccccc2c1=O)N1CCCCC1c1ncc(Cc2ccccc2F)o1 (centres unmarked) [BDE_33507923] | –
-1.97% | – | COc1cccc(Cc2cnc(C3CCCN(C(=O)Cn4ncc5ccccc5c4=O)C3)o2)c1 (centres unmarked) [BDE_33507930] | –
0.79% | – | O=C(Cn1ncc2ccccc2c1=O)N1CCCC(c2ncc(Cc3ccc(Cl)cc3)o2)C1 (centres unmarked) [BDE_33507934] | –
6.24% | – | COc1ccccc1Cc1cnc(C2CCCN(C(=O)c3cc(-c4ccc(F)cc4)no3)C2)o1 (centres unmarked) [BDE_33509516] | –
– | -2.52% | O=C(O)c1ccccc1CN1CCCC(c2ncc(Cc3ccc(Cl)cc3)o2)C1 (centres unmarked) [BDE_33511194] | –
4.61% | – | COc1ccccc1Cc1cnc(C2CCCN(S(=O)(=O)c3cn(C)nc3C)C2)o1 (centres unmarked) [BDE_33511387] | –
3.75% | – | COc1ccccc1Cc1cnc(C2CCCN(C(=O)c3ccc(Cc4ccccc4)nc3)C2)o1 (centres unmarked) [BDE_33511644] | –
1.49% | – | COc1ccccc1Cc1cnc(C2CCCCN2C(=O)Cn2ncc3ccccc3c2=O)o1 (centres unmarked) [BDE_33513118] | –
6.68% | – | O=C(c1cc(-c2ccccc2F)n[nH]1)N1CCCCC1c1ncc(Cc2ccccc2)o1 (centres unmarked) [BDE_33513466] | –
-1.92% | – | O=C(COc1ncnc2ccccc12)N1CCCCC1c1ncc(Cc2ccc(F)cc2)o1 (centres unmarked) [BDE_33513539] | –
4.13% | – | O=C(COc1ncnc2ccccc12)N1CCCCC1c1ncc(Cc2cccc(Cl)c2)o1 (centres unmarked) [BDE_33513542] | –
– | 0.39% | COc1cccc(Cc2cnc(C3CCCCN3C(=O)COc3ncnc4ccccc34)o2)c1 (centres unmarked) [BDE_33513545] | –
18.16% | – | COc1cccc(-c2cc(C(=O)N3CCCCC3c3ncc(Cc4ccccc4OC)o3)[nH]n2)c1 (centres unmarked) [BDE_33513613] | –
-11.18% | – | O=C(NCC(=O)N1CCCCC1c1ncc(Cc2ccc(Cl)cc2)o1)c1cncc(O)c1 (centres unmarked) [BDE_33513655] | –
18.69% | – | COc1ccc(OC)c(-c2cc(C(=O)N3CCCCC3c3ncc(Cc4ccccc4)o3)[nH]n2)c1 (centres unmarked) [BDE_33513704] | –
– | 7.15% | COc1cccc(-c2cc(C(=O)N3CCCCC3c3ncc(Cc4ccccc4)o3)on2)c1 (centres unmarked) [BDE_33514162] | –
-1.40% | – | O=C(c1cccc(-c2cncnc2)n1)N1CCCCC1c1ncc(Cc2cccc(F)c2)o1 (centres unmarked) [BDE_33514471] | –
– | 5.46% | COc1ccccc1CC(=O)N1CCCCC1c1ncc(Cc2ccccc2OC)o1 (centres unmarked) [BDE_33514655] | –
– | 2.98% | COc1cccc(Cc2cnc(C3CCCCN3C(=O)Cc3ccccc3OC)o2)c1 (centres unmarked) [BDE_33514656] | –
1.71% | – | COc1cccc(Cc2cnc(C3CCCCN3C(=O)c3cccnc3-c3cncs3)o2)c1 (centres unmarked) [BDE_33514740] | –
-2.14% | – | CNc1nc(C2CCCCN2C(=O)CCCN(C)c2ccccc2)nc2c1CCN(C(C)=O)C2 (centres unmarked) [BDE_33628015] | –
– | -2.31% | COCc1nc2ccccc2n1CC(=O)N1CCCCC1C1CCN(C(=O)c2cnc(C)cn2)CC1 (centres unmarked) [BDE_33628056] | –
– | -3.22% | Cn1c(COCC(=O)N2CCCCC2c2cc(C(=O)NC3CCCC3)[nH]n2)nc2ccccc21 (centres unmarked) [BDE_33628409] | –
– | 0.99% | Cc1ccc2ncnc(NCCC(=O)N3CCCCC3c3cc(C(=O)NC4CCCC4)[nH]n3)c2c1 (centres unmarked) [BDE_33629308] | –
– | -1.16% | Cc1cc(Oc2ccc(C(N)=O)cc2)nc(C2CCCCN2C(=O)CCCN2CCCCCC2)n1 (centres unmarked) [BDE_33629625] | –
-3.25% | – | O=C(CN1CCC(C2CCCCN2C(=O)C2CCN(Cc3ccccn3)CC2)CC1)N1CCCC1 (centres unmarked) [BDE_33629903] | –
– | -2.91% | O=C(NC1CCCC1)c1cc(C2CCCCN2C(=O)C2CCN(Cc3ccncc3)CC2)n[nH]1 (centres unmarked) [BDE_33629993] | –

Inhibition percent [1] | Inhibition percent [2] | SMILES | other results
0.26% | – | O=C(c1ccc(CN2CCOCC2)cc1)N1CCCC1c1ccnc(-c2cccc(Cl)c2)n1 (centres unmarked) [BDE_33630026] | –
– | 1.05% | Cc1ccc2nc(COCC(=O)N3CCCC3c3ccnc(-c4cccc(Cl)c4)n3)[nH]c2c1 (centres unmarked) [BDE_33630067] | –
– | – | CC(C)(C)c1ccc2c(c1)N(CC(=O)N1CCCCC1CCNC(=O)c1ccccc1)C(=O)CO2 (centres unmarked) [BDE_33630290] | Inhibition percent [3]: -2.18
4.13% | – | O=C(CCCC(=O)N1CCCCC1c1n[nH]cc1-c1ccc(C(F)(F)F)cc1)Nc1ccccn1 (centres unmarked) [BDE_33631892] | –
– | – | CN(C)c1ncc(-c2cccc(C(N)=O)c2)c(C2CCCCN2CC(=O)NCc2ccccn2)n1 (centres unmarked) [BDE_33632669] | Inhibition percent [3]: -2.55
0.35% | – | CCCN1CCN(C(=O)c2c[nH]cn2)CC(Cc2ccccc2-c2ccccc2OC)C1=O (centres unmarked) [BDE_33754981] | –
– | – | O=C(OCc1ccccc1)N1C[C@@H](O)[C@H](N(Cc2ccccc2)Cc2ccc(F)c(F)c2)C1 [BDE_33958860] | Inhibition percent [3]: 12.36
18.11% | – | COc1ccccc1-c1ccc(CN2C[C@@H](c3ccccc3F)[C@@]3(CCCC(=O)N3)C2)cc1 [BDF_20367643] | –
– | -1.50% | COc1ccc(S[C@@H]2CCO[C@@H](CCNC(=O)c3cc(OC)nc(OC)n3)C2)cc1 [BDF_22929100] | –
2.56% | – | CC(=O)N1CCC(Cc2cc(-c3ccccc3)no2)(C(=O)N2CCC(C(C)(C)C)CC2)C1 (centres unmarked) [BDF_23076577] | –
1.76% | – | CC(=O)N1CCC(Cc2cc(-c3ccccc3)no2)(C(=O)Nc2ccccc2OC(C)C)C1 (centres unmarked) [BDF_23076638] | –
– | – | Cn1nc(C(F)(F)F)cc1C(=O)NCC[C@@H]1C[C@@H](S(=O)(=O)c2ccccc2)CCO1 [BDF_23100510] | Inhibition percent [3]: 0.85
0.91% | – | CC(=O)N[C@@H]1CCO[C@H](c2ccc(NC(=O)C(c3ccccc3)c3ccccc3)cc2)C1 [BDF_23111075] | –
– | -3.67% | CCc1nnsc1C(=O)N(CC)[C@H]1CCO[C@@H](c2cccc(-c3cncnc3)c2)C1 [BDF_23117916] | –
-0.43% | – | COCCNC(=O)c1sc2ncccc2c1C1CCN(Cc2ccc3ncccc3c2)C1 (centres unmarked) [BDF_24020930] | –
-4.29% | – | CCN(CC)C(=O)CN1CCOC(c2c(C(=O)N3CCOCC3)sc3ncccc23)C1 (centres unmarked) [BDF_24025276] | –
– | -0.31% | CCN(Cc1cnn(-c2ccc(C)cc2)c1)[C@@H]1CCO[C@H](c2ccc(C(=O)N(C)C)cc2)C1 [BDF_24511039] | –
– | 9.04% | Cc1ccccc1OCCC(=O)N1CCC(c2nc(N(C)C)ncc2-c2cccc(F)c2)C1 (centres unmarked) [BDF_24539058] | –
0.11% | – | Cc1cc(CCCC(=O)N2CCC(c3nc(N(C)C)ncc3-c3cncnc3)C2)ccc1F (centres unmarked) [BDF_24540183] | –
-2.18% | – | NC(=O)C1(Cc2cc(C3CCCCC3)no2)CCN(C(=O)CN2CCCCCC2=O)C1 (centres unmarked) [BDF_24693170] | –
– | – | Cc1nc(C2CCN(C(=O)C3CCCCC3)C2)nc2c1CC(=O)N2CCCc1ccccc1 (centres unmarked) [BDF_25113060] | Inhibition percent [3]: -1.14
-1.26% | – | Cc1nnc(Nc2cccc(C3CN(C(=O)Cn4c(C)cc5ccccc54)CCO3)n2)s1 (centres unmarked) [BDF_25244494] | –
-0.41% | – | Cc1cc(Nc2cccc(C3CN(C(=O)Cc4ccc5c(c4)CCCO5)CCO3)n2)nn1C (centres unmarked) [BDF_25246163] | –
6.97% | – | Cc1ccccc1Cc1cccc(C2CN(C(=O)c3nccc4ccccc34)CCO2)n1 (centres unmarked) [BDF_25249064] | –
-1.98% | – | O=C(CCc1[nH]nc2c1CCCC2)N1CCOC(c2cccc(Cc3ccc(F)cc3)n2)C1 (centres unmarked) [BDF_25251125] | –
– | -1.37% | Cc1cc(C)nc(NCCC(=O)N2CCOC(c3cccc(Cc4ccccc4C)n3)C2)n1 (centres unmarked) [BDF_25252602] | –
